From patent EP3074389B1, “QUINOLINE DERIVATIVES AS BROMODOMAIN INHIBITORS” (Gilead Sciences, Inc., priority 2013, dated 2015) come the findings set out here.

Experiment [1] deals with BRD4 domain 2 (Homo sapiens, UniProt O60885). Description: Kd determination of inhibitors binding to BRD4 domain 2 (Epic label-free platform). To be noted: direct binding to immobilized BRD4 domain 2; tripling dilution series from 20µM; about 1hr equilibrium; rounded to whole number. How it is done: (§1) Kd Determination of Inhibitors Binding to BRD4 Domain 1 and Domain 2
(§2) The binding of small molecule inhibitors to either BRD4 domain 1 or domain 2 were determined using the Epic, high-throughput, label-free platform (Corning, Lowell, MA). The Epic instrument incorporates an evanescent waveguide sensor within each well of its proprietary 384-well microplates. Direct binding of inhibitors to BRD4 immobilized onto the microplate well surface can be detected by exposing the waveguide to a broadband light source. The resulting resonant wavelength shift (measured in picometers (pm)) is proportional to the mass bound to the surface. Epic biochemical plates (Corning, Lowell, MA) were activated by adding 15 µL/well of 200 mM EDC and 50 mM Sulfo-NHS (Pierce Thermo Scientific, Rockford, IL) and incubated for 60 minutes at room temperature. Plates were washed three times with MilliQ water and dried by centrifugation (1 minute at 400 rpm). BRD4 immobilization was accomplished by resuspending the protein at a concentration of 150 µg/mL in 20 mM HEPES (pH 7) and adding 10 µL/well. […] Compound/inhibitor binding was determined by calculating difference between the baseline (first read) and second read. The resulting binding response was fitted to a single site binding isotherm in order to determine an equilibrium dissociation constant (Kd).

Experiment [2] addresses BRD4 domain 1 (Homo sapiens, UniProt O60885). Description: Kd determination of inhibitors binding to BRD4 domain 1 (Epic label-free platform). To be noted: direct binding to immobilized BRD4 domain 1; tripling dilution series from 20µM; about 1hr equilibrium; rounded to whole number; read-out: Epic Kd BRD41. How it is done: as §1, §2

As a reminder, the Kd is the equilibrium constant for the complex coming apart. Consider `Cc1noc(C)c1-c1cc(S(=O)(=O)NC2CCCC2)c2cc(NCCCN)c(=O)[nH]c2c1` [Compound 94, 3-((3-aminopropyl)amino)-N-cyclopentyl-7-(3,5-dimethylisoxazol-4-yl)-2-oxo-1,2-dihydroquinoline-5-sulfonamide], for which the Kd amounted to 0.569 µM in experiment [1] and 0.743 µM in experiment [2].

As for `Cc1noc(C)c1-c1cc(S(=O)(=O)NC2CCCC2)c2cc(C(=O)O)c(=O)[nH]c2c1` [Compound 70, 5-(N-cyclopentylsulfamoyl) -7-(3,5-dimethylisoxazol-4-yl)-2-oxo-1,2-dihydroquinoline-3-carboxylic acid], the equilibrium dissociation constant (Kd) in experiment [1] was 1.96 µM; in experiment [2] it was 8.23 µM.

On to `Cc1noc(C)c1-c1cc(S(=O)(=O)N[C@@H]2CCC[C@@H]2O)c2cccnc2c1` [Compound 23, 7-(3,5-dimethylisoxazol-4-yl)-N-((1R,2S)-2-hydroxycyclopentyl)q uinoline-5-sulfonamide], for which the Kd in experiment [1] worked out at 16.7 µM; in experiment [2], 19.5 µM.

Consider `Cc1noc(C)c1-c1cc(S(=O)(=O)NC2CCCC2)c2ccc(OCC3CC3)nc2c1` [Compound 6, N-cyclopentyl-2-(cyclopropylmethoxy) -7-(3,5-dimethylisoxazol-4-yl)quinoline-5-sulfonamide], for which the Kd stood at 2.04 µM in experiment [1] and 2.11 µM in experiment [2].

In the case of `Cc1noc(C)c1-c1cc(S(=O)(=O)NC2CCCC2)c2cc(NCCOCCO)c(=O)[nH]c2c1` [Compound 91, N-cyclopentyl-7-(3,5-dimethylisoxazol-4-yl)-3-((2-(2-hydroxyethoxy)ethyl)amino)-2-oxo-1,2-dihydroquinoline-5-sulfonamide], the Kd in experiment [1] is 0.473 µM; in experiment [2], 0.705 µM.

In the case of `Cc1noc(C)c1-c1cc(S(=O)(=O)N[C@@H]2CCC[C@@H]2c2ccc(F)cc2)c2cccnc2c1` [Compound 13, 7-(3,5-dimethylisoxazol-4-yl)-N-((1R,2R)-2-(4-fluorophenyl)cyclopentyl)quinoline-5-sulfonamide], the Kd in experiment [1] is 12.4 µM; in experiment [2], 10 µM.

On to `Cc1noc(C)c1-c1cc(S(=O)(=O)NC2CCCC2)c2cc(NCC(F)F)c(=O)[nH]c2c1` [Compound 79, N-cyclopentyl-3-((2,2-difluoroethyl)amino)-7-(3,5-dimethylisoxazol-4-yl)-2-oxo-1,2-dihydroquinoline-5-sulfonamide], for which the results for the Kd in experiment [1] and in experiment [2] were 0.607 µM and 1.35 µM, respectively.

As to `Cc1noc(C)c1-c1cc(S(=O)(=O)N[C@@H]2C[C@H]2c2ccccc2)c2cccnc2c1` [Compound 12, 7-(3,5-dimethylisoxazol-4-yl)-N-((1R,2S)-2-phenylcyclopropyl)qui noline-5-sulfonamide], the Kd was > 20 µM in experiment [1] and 15.8 µM in experiment [2].

On to `Cc1noc(C)c1-c1cc(S(=O)(=O)N[C@H]2CC[C@H](O)CC2)c2cccnc2c1` [Compound 21, 7-(3,5-dimethylisoxazol-4-yl)-N-((1r,4r)-4-hydroxycyclohexyl)qu inoline-5-sulfonamide], for which the Kd in experiment [1] came out at 17.3 µM; in experiment [2] it was 10.4 µM.

`COCCNc1cc2c(S(=O)(=O)NC3CCCC3)cc(-c3c(C)noc3C)cc2[nH]c1=O` [Compound 58, N-cyclopentyl-7-(3,5-dimethylisoxazol-4-yl)-3-((2-methoxyethyl)amino)-2-oxo-1,2-dihydroquinoline-5-sulfonamide]: the values for the Kd in experiment [1] and in experiment [2] were 0.32 µM and 0.313 µM, respectively.

As for `Cc1noc(C)c1-c1cc(S(=O)(=O)NC2CC2(C)C)c2cccnc2c1` (stereo not drawn) [Compound 83], the results for the Kd in experiment [1] and in experiment [2] were 16.6 µM and 16.7 µM, respectively.

For `Cc1noc(C)c1-c1cc(S(=O)(=O)N[C@@H]2CCC[C@H]2C(=O)NCCN)c2cccnc2c1` [Compound 72, (1R,2R)-N-(2-aminoethyl)-2-(7-(3,5-dimethylisoxazol-4-yl)quinoline-5-sulfonamido)cyclopen tanecarboxamide], the Kd amounted to 2.33 µM in experiment [1] and 1.44 µM in experiment [2].
